In patent publication US20230220480A1, “IRON-SCORE AND IN VITRO METHOD FOR IDENTIFYING HIGH RISK DLBCL SUBJECTS AND THERAPEUTIC USES AND METHODS” (CENTRE NATIONAL DE LA RECHERCHE SCIENTIFIQUE (CNRS), priority 2019, published 2023):

Experiments:
Assay type in all cases: cell-based, human
OCI-LY1 = assay: Cell viability assay (CellTiter-Glo, ATP quantification); conditions: OCI-LY1 (GCB), 96H
Source text: (§1) The 16 DLBCL cell lines (U2932, OCI-LY-3, NU-DHL-1, OCI-LY-19, DB, SUDHL4, OCILY1, SUDHL5, DOHH2, SUDHL10, HT, RI-1, SU-DHL-6, NUDUL-1, WSU-DLCL-2 and OCI-LY-7) were purchased from the DSMZ (Leibniz-Institut DSMZ—Deutsche Sammlung von Mikroorganismen und Zellkulturen GmbH, Germany). They were maintained in RPMI-1640 (Gibco, Invitrogen), supplemented with 10% fetal bovine serum (PAA laboratory GmbH) for U2932, SUDHL-4, HT, DOHH2, SUDHL-10, RI-1, WSU-DLCL-2 cell lines, 20% FBS OCI-LY3, DB, SUDHL-5, NUDHL-1, SU-DHL-6, NUDUL-1 cell lines. OCI-LY1 and OCI-LY7 were cultured in IMDM (Gibco, Invitrogen), supplemented with 20% fetal bovine serum and OCI-LY19 was cultured in MEM alpha modified (Gibco, Invitrogen), supplemented with 20% fetal bovine serum. Cultures were maintained at 37° C. in a humidified atmosphere with 5% CO2.
(§2) DLBCL-derived cell lines were cultured for 4 days in 96-well flat-bottom microtiter plates in RPMI 1640 medium, 10% or 20% FCS (control medium) in the presence of various compounds. The number of viable cells in culture was determined using the CellTiter-Glo Luminescent Cell Viability Assay from Promega, Madison, Wis., USA using a Centro LB 960 luminometer (Berthold Technologies, Bad Wildbad, Germany).
(§3) This test is based on quantitation of the intracellular ATP present, which signals the presence of metabolically active cells. Data are expressed as the mean percentage of six replicates, normalized to the untreated control.
(§4) We extending the analyses to a large panel of 16 DLBCL cell lines. The panel of 16 DLBCL cell lines were incubated with increasing concentrations of Ironomycin or vehicle for 96H. Table 7 hereunder presents the inhibitory concentration 50% (IC50) of Ironomycin for the 16 DLBCL cell-lines.

HT = assay: as above; conditions: HT (GCB), 96H
Source text: as §1, §2, §3, §4

DOHH-2 = assay: as above; conditions: DOHH-2 (GCB), 96H
Source text: as §1, §2, §3, §4

SU-DHL-6 = assay: as above; conditions: SU-DHL-6 (GCB), 96H
Source text: as §1, §2, §3, §4

RI-1 = assay: as above; conditions: RI-1 (ABC), 96H
Source text: as §1, §2, §3, §4

OCI-LY7 = assay: as above; conditions: OCI-LY7 (GCB), 96H
Source text: as §1, §2, §3, §4

SU-DHL-10 = assay: as above; conditions: SU-DHL-10 (GCB), 96H
Source text: as §1, §2, §3, §4

OCI-LY19 = assay: as above; conditions: OCI-LY19 (GCB), 96H
Source text: as §1, §2, §3, §4

SU-DHL-4 = assay: as above; conditions: SU-DHL-4 (GCB), 96H
Source text: as §1, §2, §3, §4

NU-DUL-1 = assay: as above; conditions: NU-DUL-1 (ABC), 96H
Source text: as §1, §2, §3, §4

NU-DHL-1 = assay: as above; conditions: NU-DHL-1 (GCB), 96H
Source text: as §1, §2, §3, §4

WSU-DLCL-2 = assay: as above; conditions: WSU-DLCL-2 (GCB), 96H
Source text: as §1, §2, §3, §4

[1] = tested on: OCI-LY3 and DB DLBCL cells; assay: ROS production, CM-H2DCFDA staining
[2] = tested on: DLBCL-derived cell lines (U2932, DB and OCI-LY3); assay: Concentration matrix test, synergy matrix (Bliss equation); conditions: DB cell line, 96 h, combined with Doxorubicin
Protocol: (§5) The DB DLBCL-derived cell lines were treated with increasing concentrations of Ironomycin combined with Doxorubicin for 96 h and cell viability was tested by ATP quantification to obtain the viability matrix. The synergy matrix was calculated as described in Material and Methods (A).
as §5, with “Three” for “The DB”, “Venetoclax” for “Doxorubicin”, “Methods. FIG. 8A: U2932 cell line; FIG. 8B: DB cell line; FIG. 8C: OCI-LY3 cell line.” for “Methods (A).”
Two DLBCL-derived cell lines were treated with increasing concentrations of Ironomycin combined with Ibrutinib for 96 h and cell viability was tested by ATP quantification to obtain the viability matrix. The synergy matrix was calculated as described in Material and Methods. […]
Two DLBCL-derived cell lines were treated with increasing concentrations of Ironomycin combined with Venetoclax for 96 h and cell viability was tested by ATP quantification to obtain the viability matrix. The synergy matrix was calculated as described in Material and Methods. […]
Three DLBCL-derived cell lines were treated with increasing concentrations of Ironomycin combined with Venetoclax for 96 h and cell viability was tested by ATP quantification to obtain the viability matrix. […]

DLBCL cells = assay: Ferroptosis, Bodipy-C11 staining and ferrostatin-1 rescue

Question: For `C#CCN[C@@H]1C=C[C@]2(O[C@H]([C@@H](CC)C(=O)[C@@H](C)[C@@H](O)[C@H](C)[C@@H]3O[C@@H]([C@@H](CC)C(=O)O)CC[C@@H]3C)[C@@H](C)C[C@H]2C)O[C@@]12CC[C@@](C)([C@H]1CC[C@](O)(CC)[C@H](C)O1)O2` [Ironomycin], which IC50 (OCI-LY1) is on record?
Answer: Its IC50 is 20.3 nM.

Question: And the IC50 (HT)?
Answer: Its IC50 is 24.1 nM.

Question: What about the IC50 (DOHH-2) of the same compound?
Answer: Its IC50 is 91.5 nM.

Question: And the IC50 (SU-DHL-6)?
Answer: Its IC50 is 32.8 nM.

Question: What about the IC50 (RI-1) of the same compound?
Answer: Its IC50 is 30.2 nM.

Question: What about the IC50 (OCI-LY7) of the same compound?
Answer: The IC50 was 51.6 nM.

Question: What about the IC50 (SU-DHL-10) of the same compound?
Answer: The IC50 was 36.5 nM.

Question: And the IC50 (OCI-LY19)?
Answer: The IC50 was 46.9 nM.

Question: What about the IC50 (SU-DHL-4) of the same compound?
Answer: The IC50 was 7.2 nM.

Question: And the IC50 (NU-DUL-1)?
Answer: Its IC50 is 13.7 nM.

Question: What about the IC50 (NU-DHL-1) of the same compound?
Answer: Its IC50 is 50.5 nM.

Question: What about the IC50 (WSU-DLCL-2) of the same compound?
Answer: The IC50 was 30.7 nM.

Question: What about the “inhibition of induced ROS production by ferrostatin and GSH” value [1] of the same compound?
Answer: Its value is “partially inhibited by ferrostin but not by gluthation (GSH)”.

Question: What about the ROS production ([1]; CM-H2DCFDA staining) of the same compound?
Answer: The ROS production was “induces ROS production”.

Question: And the “potentiation of doxorubicin toxicity (synergy matrix)” value [2]?
Answer: Its value is “significantly potentialized the toxicity of doxorubicin”.

Question: And the “prevention of induced cell death by ferrostatin-1” value (DLBCL cells)?
Answer: The value was “partially prevented”.

Question: What about the “rescue of toxicity by combination of Oph-Q-VD and Fer-1” value (DLBCL cells) of the same compound?
Answer: Its value is “could not completely abrogate”.

Question: And the “induction of ferroptosis (lipid peroxidation)” value (DLBCL cells; Bodipy-C11 staining)?
Answer: Its value is “induces ferroptosis”.
